According to article PMC5838563, “Compounds producing an effective combinatorial regimen for disruption of HIV‐1 latency” (EMBO Molecular Medicine, 2017):

Experiments:
[1] = tested on: SP1, NF‐κB p65, IκBα, total H3K9‐me3 and H3K9ac in Jurkat^Tat reporter cells; assay: Western blot of SP1, NF‐κB p65, IκBα and global H3K9 modifications; type: cell-based
Procedure: Figure 6 Effect of PH02 on histone modification at HIV‐1 LTR and global histone modification • Chromatin immunoprecipitation assays were performed using Jurkat^Tat LTR‐DsRed, clone 11. The cells were treated for 24 h with PH02 and/or PEP005, and ChIP was performed using antibodies against histone H3K9‐me3 (left panel) and histone H3K9‐ac (right panel). The results are presented relative to ChIP with antihistone H3 antibodies. The results are determined from three biological replicates (n = 3). Statistical significance, as determined by ratio paired t‐test, is indicated as follows: ***P < 0.0005; ****P < 0.00005. The exact P‐values are indicated in Appendix Table S1. • Western blot analysis was performed using Jurkat^Tat LTR‐DsRed, clone 11, to detect the expression of SP1, NF‐κB p65, IκBα, total H3K9‐me3, and H3K9ac. The cells were treated for 24 h with PH02 and/or PEP005. Source data are available online for this figure.
Figure EV3 Effect of PH compounds on SP1, NF‐κB p65, and IκBα expression Jurkat^Tat LTR‐Luciferase cells were treated with a single concentration (3 μM) of each PH compound for the indicated time points. Whole‐cell protein extract was separated by SDS–PAGE, transferred to nitrocellulose membrane, and blotted with antibodies against SP1, NF‐κB p65, and IκBα. GAPDH was used as the loading control. Source data are available online for this figure.
5 × 10^6 luciferase reporter cells/Jurkat^Tat LTR‐DsRed, clone 11, were treated with the indicated concentration of the compounds. After treatment, the cells were lysed in RIPA buffer (50 mM Tris–HCl, pH 8.0, 150 mM NaCl, 1% NP‐40, 0.5% sodium deoxycholate, 0.1% SDS), supplemented with 1× protease inhibitor cocktail and 1 mM DTT, to collect the whole‐cell protein extract, which was further quantified using Bradford assay. A 30 μg equivalent of the protein extract was mixed with the 5× SDS–PAGE sample buffer and boiled for 5 min, and then, it was separated using 12% SDS–PAGE gel and transferred to a nitrocellulose membrane. […]

[2] = tested on: latent HIV‐1 provirus in CD4^+ T cells from aviremic HIV‐infected patients; assay: Intracellular HIV‐1 mRNA in CD4+ T cells of aviremic patients; type: cell-based
Procedure: However, 1 nM PEP005 in combination with 1 μM PH02 produced a significant response that was double that produced by 1 μM PH02 on its own (Fig 10A). We confirmed this effect using a quantitative viral outgrowth assay (qVOA) with pools of CD4^+ T cells isolated from HIV‐1‐infected patient samples (Fig EV5, Appendix Table S5). […] We conclude that this combination of treatments may represent a promising candidate therapy to target persistent latent viral infection.
Figure 10 Effect of PH02 and PEP005 on expression of HIV provirus in latently infected cells from patients • Expression of intracellular HIV‐1 mRNA was determined from pools of CD4^+ T cells from aviremic HIV‐infected patients (n = 3, Appendix Table S4) following 24‐h treatment as indicated. Results are shown as fold induction relative to untreated controls. • Quantitative viral outgrowth assays (qVOA) were used to measure reactivation of HIV‐1 provirus from latency in pools of cells from patients. […] Data information: Statistical significance was determined by one‐way ANOVA and indicated as: *P < 0.05; **P < 0.005; ***P < 0.0005; ****P < 0.00005. […]
HIV‐1 RNA was measured from 1 × 10^6 resting CD4^+ T lymphocytes treated with 30 μM of each compound. […] RNA copy number was calculated using a standard curve generated from titrated infections with RGH‐PGK virus (Dahabieh et al, 2013). […]

[3] = Jurkat^Tat LTR‐DsRed clone 11, 24 h

SMILES | IκBα level ([1]; Jurkat^Tat LTR‐DsRed clone 11, 24‐h treatment, alone or with PH02) | induction of viral RNA ([2]; 1 nM PEP005 alone, 24 h) | expression of NF‐κB p65 and SP1 [1, 3] | global acetylation or methylation of lysine 9 on H3 [1, 3] | response of combination relative to 1 μM PH02 on its own ([2]; 1 μM PH02 + 1 nM PEP005, 24 h)
C/C=C(/C)C(=O)O[C@H]1C(C)=C[C@]23C(=O)[C@@H](C=C(CO)[C@@H](O)[C@]12O)[C@H]1[C@@H](C[C@H]3C)C1(C)C [PEP005, ingenol‐3‐angelate, reference compound] | causes loss of IκBα | did not cause induction of viral RNA |  |  | 
CC(=O)Oc1ccccc1N(C=C1Sc2ccccc2C1=O)C(C)=O [PH02, 2‐{acetyl[(3‐oxo‐1‐benzothien‐2(3H)‐ylidene)methyl]amino}phenyl acetate] |  |  | mostly unaffected | do not observe a significant effect | double
